This is an account of results in patent publication US7205317B2, “4[piperidin-4-yliden-(3-carbamoylpheny)methyl]benzamide derivatives and their use for the treatment of pain spinal injuries or gastrointestinal disorders” (AstraZeneca AB, priority 2001, dated 2007).

The target of experiment [1] is T1, delta receptors, rat brain membranes (Rattus norvegicus, UniProt P33533).
T1 construct: from tissue; host or cells: rat brain homogenate
Nature of the experiment: GTP[γ]35S binding functional assay, homogenised rat brain. In kind it is biochemical. How it is done:
(§1) • A. Human 293S cells expressing cloned human μ, δ, and κ receptors and neomycin resistance were grown in suspension at 37° C. and 5% CO2 in shaker flasks containing calcium-free DMEM 10% FBS, 5% BCS, 0.1% Pluronic F-68, and 600 μg/ml geneticin. • B. Mouse and rat brains were weighed and rinsed in ice-cold PBS (containing 2.5 mM EDTA, pH 7.4). The brains were homogenized with a polytron for 15 sec (mouse) or 30 sec (rat) in ice-cold lysis buffer (50 mM Tris, pH 7.0, 2.5 mM EDTA, with phenylmethylsulfonyl fluoride added just prior use to […] from a 0.5M stock in DMSO:ethanol). Membrane Preparation
(§2) The agonist activity of the compounds is measured by determining the degree to which the compounds receptor complex activates the binding of GTP to G-proteins to which the receptors are coupled. In the GTP binding assay, GTP[γ]^35S is combined with test compounds and membranes from HEK-293S cells expressing the cloned human opioid receptors or from homogenised rat and mouse brain. Agonists stimulate GTP[γ]^35S binding in these membranes. The EC50 and Emax values of compounds are determined from dose-response curves. Right shifts of the dose response curve by the delta antagonist naltrindole are performed to verify that agonist activity is mediated through delta receptors.

Experiment [2] deals with T2, cloned human δ receptor (HDELTA) (Homo sapiens, UniProt P41143).
T2 construct: expressed in transfected cells; host or cells: human 293S (HEK-293S) cells, geneticin-selected
T2 sequence (P41143 whole entry): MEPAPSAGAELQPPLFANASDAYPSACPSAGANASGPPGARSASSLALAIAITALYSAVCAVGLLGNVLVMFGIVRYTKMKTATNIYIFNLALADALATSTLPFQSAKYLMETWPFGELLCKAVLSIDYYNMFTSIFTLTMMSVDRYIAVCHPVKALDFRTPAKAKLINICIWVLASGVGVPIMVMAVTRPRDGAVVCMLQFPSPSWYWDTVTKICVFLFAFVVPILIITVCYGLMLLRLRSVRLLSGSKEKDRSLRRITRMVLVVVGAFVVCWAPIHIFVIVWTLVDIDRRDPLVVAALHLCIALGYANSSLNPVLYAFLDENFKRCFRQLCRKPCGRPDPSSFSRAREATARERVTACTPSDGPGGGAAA
In words: GTP[γ]35S binding functional assay, membranes from HEK-293S cells expressing cloned human opioid receptors. In kind it is biochemical. How it is done:
as §1
Cells were pelleted and resuspended in lysis buffer (50 mM Tris, pH 7.0, 2.5 mM EDTA, with PMSF added just prior to use to 0.1 mM from a 0.1 M stock in ethanol), incubated on ice for 15 min, then homogenized with a polytron for 30 sec. The suspension was spun at 1000 g (max) for 10 min at 4° C. The supernatant was saved on ice and the pellets resuspended and spun as before. The supernatants from both spins were combined and spun at 46,000 g (max) for 30 min. The pellets were resuspended in cold Tris buffer (50 mM Tris/Cl, pH 7.0) and spun again. The final pellets were resuspended in membrane buffer (50 mM Tris, 0.32 M sucrose, pH 7.0). Aliquots (1 ml) in polypropylene tubes were frozen in dry ice/ethanol and stored at −70° C. until use. The protein concentrations were determined by a modified Lowry assay with sodium dodecyl sulfate.
as §2

The target of experiment [3] is T2, cloned human δ receptor (HDELTA). In words: Binding assay, displacement of radioligand on membranes of 293S cells expressing cloned human δ receptor. As to conditions: 293S cell membranes.
Experiment [4] concerns the target T3, delta receptors, mouse brain membranes (Mus musculus, UniProt P32300).
T3 construct: from tissue; host or cells: mouse brain homogenate
Nature of the experiment: GTP[γ]35S binding functional assay, homogenised mouse brain. In kind it is biochemical. On the procedure: as §1, §2

T1 sequence (P33533 whole entry): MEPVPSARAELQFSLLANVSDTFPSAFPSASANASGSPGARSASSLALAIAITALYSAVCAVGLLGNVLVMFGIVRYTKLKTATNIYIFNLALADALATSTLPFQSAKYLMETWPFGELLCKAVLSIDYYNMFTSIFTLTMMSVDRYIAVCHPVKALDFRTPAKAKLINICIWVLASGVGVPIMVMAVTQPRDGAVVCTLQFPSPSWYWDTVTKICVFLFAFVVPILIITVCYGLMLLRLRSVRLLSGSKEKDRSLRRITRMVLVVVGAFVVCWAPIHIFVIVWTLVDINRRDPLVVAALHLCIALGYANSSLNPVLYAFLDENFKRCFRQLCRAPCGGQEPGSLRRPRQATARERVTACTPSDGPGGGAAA
T3 sequence (P32300 whole entry): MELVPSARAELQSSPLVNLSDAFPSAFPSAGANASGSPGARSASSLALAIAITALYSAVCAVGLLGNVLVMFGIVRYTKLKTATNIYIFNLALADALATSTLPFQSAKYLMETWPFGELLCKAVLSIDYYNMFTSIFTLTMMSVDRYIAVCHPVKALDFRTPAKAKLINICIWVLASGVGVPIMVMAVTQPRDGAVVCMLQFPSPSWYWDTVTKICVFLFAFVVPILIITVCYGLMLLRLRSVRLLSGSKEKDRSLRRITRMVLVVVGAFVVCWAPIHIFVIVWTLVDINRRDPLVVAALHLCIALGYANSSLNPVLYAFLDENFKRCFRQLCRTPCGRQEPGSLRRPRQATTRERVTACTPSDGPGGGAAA

With `CCN(CC)C(=O)c1ccc(C(=C2CCN(Cc3ccccc3)CC2)c2cccc(C(N)=O)c2)cc1` [3b, N,N-Diethyl-4-[1-benzylpiperidin-4-ylidene(3-carbamoylphenyl)-methyl]-benzamide], the EC50 in experiment [1] was 403 pM; in experiment [2], 91 pM; in experiment [4] it was 539 pM. Also, the Emax is 179% in experiment [1], 93.8% in experiment [2] and 165% in experiment [4]. The same molecule gave an IC50 in experiment [3] of 548 pM.

For `CCN(CC)C(=O)c1ccc(C(=C2CCN(Cc3cccs3)CC2)c2cccc(C(N)=O)c2)cc1` [5a], the values for the EC50 in experiment [1], in experiment [2] and in experiment [4] were 613 pM, 158 pM and 818 pM, respectively. Further, the Emax in experiment [1] is 181%; in experiment [2], 98.1%; in experiment [4], 170%. The IC50 in experiment [3] came out at 373 pM.

In experiment [1], `CCN(CC)C(=O)c1ccc(C(=C2CCN(Cc3ccco3)CC2)c2cccc(C(N)=O)c2)cc1` [5b] showed an EC50 of 633 pM and an Emax of 149%. In experiment [3], this molecule had an IC50 of 282 pM.

For the molecule `CCN(CC)C(=O)c1ccc(C(=C2CCN(Cc3ccoc3)CC2)c2cccc(C(N)=O)c2)cc1` [5c], in experiment [1], the EC50 worked out at 367 pM and the Emax turned out to be 170%. For the same molecule, the IC50 in experiment [3] was found to be 246 pM.

In experiment [1], `CCN(CC)C(=O)c1ccc(C(=C2CCN(Cc3ccccn3)CC2)c2cccc(C(N)=O)c2)cc1` [5d, N,N-Diethyl-4-[1-(2-pyridine)methyl-piperidin-4-ylidene-(3-carbamoylphenyl)-methyl]-benzamide] showed a concentration for a half-maximal effect (EC50) of 396 pM and an Emax of 180%. Further, the IC50 in experiment [3] came to 278 pM.

`CCN(CC)C(=O)c1ccc(C(=C2CCN(Cc3ccsc3)CC2)c2cccc(C(N)=O)c2)cc1` [5e, N,N-Diethyl-4-[1-(3-thiophene)methyl-piperidin-4-ylidene-(3-carbamoylphenyl)-methyl]-benzamide] registered an IC50 in experiment [3] of 235 pM.
